This note sets out measurements from PubChem BioAssay AID463089 (NMMLSC, 2010).

Each structure is given as a SMILES string. Activity calls are given as the source filed them.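 How the source made its calls: active means compound whose binding-signal loss grows with dose, reaching half its maximum below 10 micromolar; inactive means the rest.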

Usually EC50 stands for the midpoint of the concentration-response curve.

Test [1] is described as follows: MEKK2 PB1 heterodimer disruption – biochemical, TR-FRET, Eu and Cy5 interference panels, dose response (AID 463089). The settings on record: TR-FRET MEKK2-MEK5 PB1 binding; for response (panel-specific, % change): at 30 µM (top of the series). (In general: Time-resolved FRET reads energy transfer from a long-lived donor to a nearby acceptor.)
For test [2], the target named is Mitogen-activated protein kinase kinase kinase 2 (Homo sapiens) (UniProt Q9Y2U5). The test is described as above. The settings on record: TR-FRET MEKK2-MEK5 PB1 binding, TR-FRET binding assay; for response (panel-specific, % change): at 30 µM (top of the series).
Setting [3] is: Cy5 fluorescence 665 nm counterscreen.
[4] abbreviates: Eu fluorescence 620 nm counterscreen.

Mitogen-activated protein kinase kinase kinase 2 (Homo sapiens), sequence (Q9Y2U5 whole entry, looked up): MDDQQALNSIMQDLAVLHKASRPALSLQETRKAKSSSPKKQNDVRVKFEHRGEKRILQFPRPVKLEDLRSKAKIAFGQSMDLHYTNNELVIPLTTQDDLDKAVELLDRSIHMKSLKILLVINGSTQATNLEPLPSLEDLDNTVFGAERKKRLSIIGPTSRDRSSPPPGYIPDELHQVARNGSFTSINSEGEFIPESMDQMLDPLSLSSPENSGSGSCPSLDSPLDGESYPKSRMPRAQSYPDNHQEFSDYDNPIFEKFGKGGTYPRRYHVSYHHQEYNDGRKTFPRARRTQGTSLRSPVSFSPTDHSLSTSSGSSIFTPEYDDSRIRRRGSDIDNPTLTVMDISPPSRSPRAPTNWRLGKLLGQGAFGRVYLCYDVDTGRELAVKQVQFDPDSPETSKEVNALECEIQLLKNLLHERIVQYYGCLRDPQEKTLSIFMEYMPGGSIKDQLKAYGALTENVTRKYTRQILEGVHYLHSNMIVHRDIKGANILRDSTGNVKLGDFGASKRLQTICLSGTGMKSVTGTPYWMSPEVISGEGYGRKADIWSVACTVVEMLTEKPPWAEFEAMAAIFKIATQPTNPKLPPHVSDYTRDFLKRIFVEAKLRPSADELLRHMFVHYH

Consider `Nc1cc2nc[nH]c2cc1N`, for which the “response (panel-specific, % change)” value in test [1] (setting [3]) was “inactive”. Further, the figures for the EC50 in test [1] (setting [4]) and in test [2] were 1.5 µM and 2 µM, respectively.
As for `CCN1/C(=C/C(C)=C/c2sc3ccccc3[n+]2CC)Sc2ccccc21`, the “response (panel-specific, % change)” value in test [1] (setting [3]) and in test [2] was “inactive” each time. Further, the EC50 in test [1] (setting [4]) was 2 µM.
For `COc1cccc(OC)c1-c1nn2c(-c3cc(-c4ccccc4)n[nH]3)nnc2s1`, the “response (panel-specific, % change)” value in test [1] (setting [3]) and in test [1] (setting [4]) was “inactive” throughout. In addition, the EC50 in test [2] was 2.2 µM.
Consider `CN1CCN(c2ccc(NC(=O)c3ccc(-c4ccc(Cl)cc4)o3)cc2)CC1`, for which the “response (panel-specific, % change)” value in test [1] (setting [3]) and in test [1] (setting [4]) was “inactive” throughout.
In the case of `CCNc1ccc2noc3c2c1C(=O)c1ccccc1-3`, in test [1] (setting [3]), the “response (panel-specific, % change)” value is “inactive”. The EC50 in test [1] (setting [4]) was 1.6 µM; in test [2] it was 3.5 µM.
As for `CCC(=C/c1sc2ccc3ccccc3c2[n+]1C)/C=C1\Sc2ccc3ccccc3c2N1C`, the EC50 in test [1] (setting [3]) is 4.1 µM; in test [1] (setting [4]), 1.9 µM. The “response (panel-specific, % change)” value in test [2] was “inactive”.
